Where “and” joins values, the source holds several entries; their conditions need not be identical. Identical values can stand only once.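 Protocol summary: plate cells (96-well), add compound at 5 concentrations, incubate 48 h, interpolate endpoints linearly. GI50: concentration for 50% inhibition of growth. Definition used: TGI = concentration required for complete inhibition of growth.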
How the values were obtained:
Assay in all cases: DTP human tumour cell line panel, 48 h
[1] = test system: KM20L2 colon
[2] = test system: HL-60(TB) leukemia
[3] = test system: LXFL 529 NSCLC
[4] = test system: SF-295 CNS
[5] = test system: KM12 colon
[6] = test system: U251 CNS
[7] = test system: K-562 leukemia
[8] = test system: MDA-MB-231 breast
[9] = test system: DU-145 prostate
[10] = test system: SK-MEL-5 melanoma
[11] = test system: T-47D breast

`COc1ccc(-c2oc(/C=N/NC(N)=S)c([N+](=O)[O-])c2-c2ccc(OC)c(OC)c2)cc1OC` was tested, and the TGI [1] was 92.4 µM, the TGI [2] was 55 µM and the TGI [3] was 63.8 µM. The TGI [4] was 53.4 µM.
With `CC(O)CCCOC(c1ccccc1)(c1ccccc1)c1ccccc1` (configuration not stated) the TGI [5] was 27.8 µM, the TGI [1] was 22.3 µM and the TGI [6] was 30.3 µM. The TGI [2] was > 55.1 µM, the TGI [3] was 27.9 µM and the TGI [7] was > 100 µM. The TGI [8] was 33.3 µM, the TGI [4] was 27.4 µM and the TGI [9] was 30.4 µM. For the same molecule, the TGI [10] was 16.6 µM.
In the case of `CCC1=CC2CN3Cn4c(c(COCc5c6n(c7ccccc57)CN5CC7C=C(CC)C5C6(C(=O)OC)C7)c5ccccc54)C(C(=O)OC)(C2)C13`, the TGI [5] is reported as > 100 µM, the TGI [1] is reported as > 100 µM and the TGI [6] is reported as > 100 µM. For the same molecule, the TGI [2] was > 100 µM, the TGI [3] was > 100 µM and the TGI [7] was > 100 µM. For the same molecule, the TGI [4] was > 100 µM and the TGI [10] was > 100 µM.
With `Cc1cn([C@@H]2C[C@H](CO)[C@@H](O)C2)c(=O)[nH]c1=O` the TGI [5] was > 100 µM, the TGI [1] was > 100 µM and the TGI [6] was > 100 µM. The TGI [2] was > 100 µM, the TGI [3] was > 100 µM and the TGI [7] was > 100 µM. The TGI [4] was > 100 µM.
With `COc1c(O)c2c3c(c(C)cc(O)c3c1O)C(=O)C(O)(C(C)(C)C(C)=O)C2=O` (configuration not stated) the TGI [5] was > 100 µM, the TGI [1] was > 100 µM and the TGI [6] was > 100 µM. The TGI [2] was > 100 µM, the TGI [3] was > 100 µM and the GI50 [7] was 34.4 µM and > 100 µM. The TGI [7] was > 100 µM, the GI50 [4] was 25.2 µM and > 100 µM and the TGI [4] was 71.2 µM and > 100 µM. For the same molecule, the TGI [10] was > 100 µM.
`O=C1Sc2ccccc2C(=O)N2CSCC12` (configuration not stated) was tested, and the TGI [5] was > 100 µM, the TGI [1] was > 100 µM and the TGI [6] was > 100 µM. The TGI [2] was > 100 µM, the TGI [3] was > 100 µM and the TGI [7] was > 100 µM. For the same molecule, the TGI [4] was > 100 µM and the TGI [10] was > 100 µM.
In the case of `CCN(CC)CCCNC(=O)c1ccc([N+](=O)[O-])cc1O`, the TGI [5] is reported as > 100 µM, the TGI [1] is reported as > 100 µM and the TGI [6] is reported as > 100 µM. For the same molecule, the TGI [2] was > 100 µM, the TGI [3] was > 100 µM and the TGI [7] was > 100 µM. For the same molecule, the TGI [4] was > 100 µM and the TGI [10] was > 100 µM.
In the case of `C=CCNC(=S)N=Nc1c(O)[nH]c2ccc([N+](=O)[O-])cc12`, the TGI [5] is reported as > 100 µM, the TGI [6] is reported as > 100 µM and the TGI [2] is reported as > 100 µM. For the same molecule, the TGI [11] was 87.4 µM, the TGI [7] was > 100 µM and the TGI [8] was > 100 µM. The TGI [4] was > 100 µM, the TGI [9] was > 100 µM and the TGI [10] was > 100 µM.
`CC(=O)O/N=C/c1c2ccccc2cc2ccccc12` was tested, and the TGI [5] was > 100 µM, the TGI [6] was > 100 µM and the TGI [2] was > 100 µM. For the same molecule, the TGI [11] was > 100 µM, the TGI [7] was > 100 µM and the TGI [8] was > 100 µM. The TGI [4] was > 100 µM, the TGI [9] was > 100 µM and the TGI [10] was > 100 µM.
In the case of `c1ccc2c(c1)c1c(n2CCOCCN2CCOCC2)CCCC1`, the TGI [5] is reported as > 100 µM, the TGI [6] is reported as 64.6 µM and the TGI [2] is reported as 51.9 µM. For the same molecule, the TGI [11] was > 100 µM, the TGI [7] was > 100 µM and the TGI [8] was 47 µM. The TGI [4] was 50 µM, the TGI [9] was > 100 µM and the TGI [10] was 48.9 µM.
`C=Cc1ccc(C)[n+](C[Si](C)(C)O[Si](C)(C)C[n+]2cc(C=C)ccc2C)c1` was tested, and the TGI [5] was > 100 µM, the TGI [1] was > 100 µM and the TGI [6] was > 100 µM. For the same molecule, the TGI [2] was > 100 µM, the TGI [3] was > 100 µM and the TGI [7] was > 100 µM. The TGI [4] was > 100 µM and the TGI [10] was > 100 µM.
With `CC(=O)OCC1OC(n2cc(I)c(=O)[nH]c2=O)C(OC(C)=O)C(OC(C)=O)C1OC(C)=O` (configuration not stated) the TGI [5] was > 100 µM, the TGI [1] was > 100 µM and the TGI [6] was > 100 µM. The TGI [2] was > 100 µM, the TGI [3] was > 100 µM and the TGI [7] was > 100 µM. For the same molecule, the TGI [4] was > 100 µM and the TGI [10] was > 100 µM.
`Clc1ccc(CSCCc2ccncc2)cc1Cl` showed a TGI [5] of 50.9 µM, a TGI [6] of 28.5 µM and a TGI [2] of 40 µM. The TGI [11] was > 100 µM, the TGI [7] was 51 µM and the TGI [8] was 29.1 µM. The TGI [4] was 41.8 µM, the TGI [9] was > 100 µM and the TGI [10] was 29.9 µM.
